Reference: patent publication EP0629402A1, “Pharmaceutical compositions containing ipsapirone” (BAYER AG, priority 1993, dated 1994)

Experiment: Pharmacokinetic studies: bioavailability after oral administration
Conditions: in vivo, nach oraler Gabe, read-out: Bioverfügbarkeit
Description: Als Ergebnis pharmakokinetischer Untersuchungen wurde festgestellt, daß Ipsapiron nach oraler Gabe eine Bioverfügbarkeit von nur 40 % aufweist. Ein erheblicher Wirkstoffanteil wird bereits präsystemisch metabolisiert und kann nicht bioverfügbar werden. Dies ist nachteilig, weil dieser Substanzverlust durch eine erhöhte Wirkstoffdosis ausgeglichen werden muß. Es resultieren große, für den Patienten schlecht schluckbare Arzneiformen und eine erhebliche Belastung des Patienten mit pharmakologisch inaktiven Ipsapiron-Metaboliten. Ferner nehmen mit sinkender Bioverfugbarkeit die interindividuellen Schwankungen im Plasmakonzentrationsverlauf zu und die Therapie wird unkalkulierbar.

In the case of O=C1c2ccccc2S(=O)(=O)N1CCCCN1CCN(c2ncccn2)CC1 [Ipsapiron], the bioavailability is reported as 40%.
